# According to patent US20110268688A1, “METHOD AND COMPOSITIONS FOR IMPROVING SKIN AND BODY APPEARANCE” (priority 2008, published 2011):
# Test system: adipocytes
# Assay: Lypolysis Assay Kit (dual glycerol and free fatty acids detection), adipocyte lipolytic activity
# Assay type: cell-based
# Settings: forskolin 25, 2.5, 0.25 micromolar; conjugated linoleic acid 10, 1, 0.1 micromolar; 5 hours at 37° C.; optical density at 540 nanometers
# Procedure: Suitable lipolytic agents may be identified by conducting a simple test using a lipolysis assay kit purchased from Zen-Bio. One suitable kit is the Lypolysis Assay Kit (dual glycerol and free fatty acids detection, reagents+cells) purchased from Zen-Bio (www.zen-bio.com) under catalog no. LIP-3.
# The adipocyte lipolytic activity of ingredients was tested using Lypolysis Assay Kit (dual glycerol and free fatty acids detection, reagents+cells) purchased from Zen-Bio (www.zen-bio.com) under catalog no. LIP-3. Serial dilutions of forskolin and conjugated linoleic acid were prepared in Krebs-Ringer Buffer containing 1% by weight free fatty acid bovine serum albumin. Culture medium was removed from the plate wells and the cells were washed with phosphate buffered saline. The forskolin test material was added to the test wells to provide wells having a total concentration of 25, 2.5, and 0.25 micromolar. The conjugated linoleic acid test material was added to the test wells to provide concentrations of 10, 1, and 0.1 micromolar. The plate was incubated for 5 hours at 37° C. Fifty microliters of test material was removed from each plate and transferred to clean wells. Triglyceride breakdown was tested by measuring for the presence of glycerol or NEFA (non-esterified fatty acids). […] The optical density of each well of the glycerol and NEFA plate wells was measured at 540 nanometers.
substance,measurement,value
conjugated linoleic acid,"adipocyte lipolytic activity (triglyceride breakdown, glycerol or NEFA)",effective in increasing lipolysis of adipocytes
